The results in this text go back to publication PMC8580252, “Parasitic nematode fatty acid- and retinol-binding proteins compromise host immunity by interfering with host lipid signaling pathways” (PLoS Pathogens, 2021).

The target of this assay is T1, Sc-FAR-2 (Steinernema carpocapsae, UniProt A0A4U5NI02).
T1 construct: gene L596_016036; mature protein (signal peptide removed), N-terminal His6 tag cut off with TEV protease, E. coli BL21-CodonPlus, about 20 kDa family
Briefly: fluorescence titration, one-site fit. It counts as binding.

Each structure is given as a SMILES string.

T1 sequence (A0A4U5NI02 entry or part of it): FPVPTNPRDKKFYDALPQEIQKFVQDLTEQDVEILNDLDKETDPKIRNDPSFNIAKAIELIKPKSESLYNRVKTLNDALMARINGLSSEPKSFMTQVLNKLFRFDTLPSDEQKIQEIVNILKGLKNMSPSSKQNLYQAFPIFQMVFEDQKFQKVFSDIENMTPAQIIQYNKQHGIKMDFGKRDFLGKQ

In general, Kd refers to a measure of binding affinity in units of concentration. High values mean weaker binding, low ones tighter binding. Consider `CN(C)c1cccc2c(S(=O)(=O)NCCCCCCCCCCC(=O)O)cccc12` [DAUDA], for which the affinity, expressed as Kd, was 21.8 µM.
